Source: PubChem BioAssay (NCI)
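How tested: cells in 96-well plates exposed to compound for 48 hours at five concentrations. At the GI50, growth is halved. The concentration for full growth arrest is given as TGI.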

Columns and labels:
Assay in all cases: NCI-60 cell line screen, 48 h
[1] = system: OVCAR-8 ovarian
[2] = system: UO-31 renal
[3] = system: MCF7 breast
[4] = system: HL-60(TB) leukemia
[5] = system: PC-3 prostate
[6] = system: HOP-62 NSCLC
[7] = system: SF-268 CNS
[8] = system: HS 578T breast
[9] = system: HCT-15 colon
[10] = system: OVCAR-3 ovarian

SMILES | GI50 [1] | TGI [1] | GI50 [2] [µM] | TGI [2] [µM] | GI50 [3] | TGI [3] | GI50 [4] | TGI [4] | GI50 [5] | TGI [5] | GI50 [6] | TGI [6] | GI50 [7] | TGI [7] | GI50 [8] | TGI [8] | GI50 [9] | TGI [9] | TGI [10] | GI50 [10]
C=CCc1cccc(C=O)c1O | 39.5 µM | > 100 µM | 70.1 | > 100 | 7.9 µM | > 100 µM | 10.6 µM | 41 µM | 5.86 µM | > 100 µM | > 100 µM | > 100 µM | 25.2 µM | > 100 µM | > 100 µM | > 100 µM | 6.56 µM | > 100 µM | – | –
Cc1cc(N(CCC#N)CCC#N)ccc1/C=C(\NC(=O)/C=C/c1ccccc1)C(=O)N=[N+]=[N-] | – | > 100 µM | – | > 100 | – | – | – | > 100 µM | – | – | – | > 100 µM | – | > 100 µM | – | – | – | > 100 µM | > 100 µM | –
CN(C)CCC(N)(P(=O)([O-])[O-])P(=O)([O-])[O-].N.N.[Pt+2] | > 100 µM | > 100 µM | > 100 | > 100 | – | – | > 100 µM | > 100 µM | – | – | > 100 µM | > 100 µM | > 100 µM | > 100 µM | – | – | > 100 µM | > 100 µM | > 100 µM | > 100 µM
C/C(=C\C(=O)O[C@H]1[C@@H]2[C@H](C)CC[C@H]2[C@]2(C)O[C@@]1(C1CCCCC1)C[C@H]2OC(=O)CO)c1ccccc1 | 4.27 µM | 10.7 µM | – | – | 5.4 µM | 11.9 µM | 5.04 µM | 13.1 µM | 5.05 µM | 10.9 µM | 7 µM | 13 µM | 0.2 µM | 8.47 µM | 0.0101 µM | 0.0295 µM | 6.81 µM | 13 µM | 13.9 µM | 7.69 µM
CC(=O)OC(C)(C)C1CC[C@]2(C)/C=C/C(C)C[C@@H](O)/C=C(\C)CC(O)C12 (stereo partly specified) | – | > 100 µM | – | > 100 | – | – | – | > 100 µM | – | – | – | > 100 µM | – | > 100 µM | – | – | – | > 100 µM | > 100 µM | –
O=C1C=C(Nc2ccccc2)c2ccccc2C1=O | 2.71 µM | 12.8 µM | 1.71 | 4.48 | 1.88 µM | 4.3 µM | 2.82 µM | 7.83 µM | – | – | 1.17 µM | 2.83 µM | 2.67 µM | 8.71 µM | 2.57 µM | 6.32 µM | 1.77 µM | 3.98 µM | 5.27 µM | 1.96 µM
O=C(NCc1cn(Cc2cccc(Oc3ccccc3)c2)nn1)c1cccnc1Nc1ccc(F)cc1 | 7.44 µM | > 100 µM | 86.3 | > 100 | – | – | > 100 µM | > 100 µM | 20.4 µM | > 100 µM | 6.02 µM | 32.5 µM | 21 µM | > 100 µM | 30.9 µM | > 100 µM | – | – | > 100 µM | 17.7 µM
CC(C)(C)CC(C)(C)c1ccc(OCCO)cc1 | 3.31 µg/mL | > 75 µg/mL | – | – | 4.01 µg/mL | 17 µg/mL | 1.81 µg/mL | 31.6 µg/mL | 3.26 µg/mL | 16 µg/mL | 3.75 µg/mL | 16.3 µg/mL | 8.87 µg/mL | 27.3 µg/mL | 4.26 µg/mL | 19.6 µg/mL | 7.74 µg/mL | 19.3 µg/mL | 13.4 µg/mL | 2.63 µg/mL
C=CC1(C)CCC2C(=CCC3C2(C)CC(O)C(O)C3(C)COC2OC(CO)C(O)C(O)C2O)C1 (stereo unspecified) | – | > 100 µM | – | > 100 | – | > 100 µM | – | > 100 µM | – | > 100 µM | – | – | – | > 100 µM | – | > 100 µM | – | > 100 µM | – | –
NS(=O)(=O)c1ccc(N(/C=C/C(=O)C(F)(F)F)CC(=O)c2ccc(F)cc2)cc1 | 42.3 µM | > 100 µM | 31.9 | > 100 | > 100 µM | > 100 µM | – | – | 22.7 µM | 81.2 µM | 65.4 µM | > 100 µM | 34.8 µM | > 100 µM | – | – | 23.6 µM | 85.5 µM | 47.3 µM | 19.7 µM
C/C(=N/NC(=O)c1ccccc1S(N)(=O)=O)C(CN1CCCCC1)C(C1=C(O)C2C=CC=CC2OC1=O)c1ccccc1 (stereo unspecified) | – | > 100 µM | – | > 100 | – | – | – | 53.3 µM | – | – | – | > 100 µM | – | > 100 µM | – | – | – | > 100 µM | > 100 µM | –
CCN(CC)CC(=O)NC1c2ccccc2Oc2ccccc21 | – | > 100 µM | – | > 100 | – | – | – | > 100 µM | – | – | – | > 100 µM | – | > 100 µM | – | – | – | > 100 µM | – | –
Cc1c(C(Cc2ccccc2N(C)C(=O)/C=C\C(=O)O)c2c[nH]c3ccccc23)c2ccccc2n1C (stereo unspecified) | – | 29.4 µM | – | 27.7 | – | – | – | 23.9 µM | – | – | – | 32.5 µM | – | 35.9 µM | – | – | – | 29.3 µM | 27.7 µM | –
C[C@@H]1C(=O)CC2C(C)(C)CCC[C@]2(C)[C@@]12CC[C@]1(C=COC1)O2 (stereo partly specified) | – | > 100 µM | – | > 100 | – | – | – | 42.3 µM | – | – | – | > 100 µM | – | > 100 µM | – | – | – | > 100 µM | > 100 µM | –
COc1cc2c(c3oc(-c4ccc(O)cc4)c(O)c(=O)c13)CCC(C)(C)O2 | 0.292 µM | 0.856 µM | 0.0281 | 0.075 | 0.381 µM | > 100 µM | – | – | 1.17 µM | > 100 µM | 0.0712 µM | 0.165 µM | 0.122 µM | – | 0.0903 µM | – | 0.169 µM | 0.392 µM | 27.4 µM | 0.431 µM
O=C(/C=C/c1ccccc1)NC1C=Nc2ccc([N+](=O)[O-])cc2NC1=O (stereo unspecified) | – | > 100 µM | – | > 100 | – | – | – | > 100 µM | – | – | – | > 100 µM | – | > 100 µM | – | – | – | > 100 µM | > 100 µM | –
NC1=C(O)c2cccc3cccc(c23)C1=O | – | > 100 µM | – | > 100 | – | – | – | > 100 µM | – | – | – | – | – | > 100 µM | – | – | – | > 100 µM | > 100 µM | –
O=C(O)/C=C/c1ccc(O)c(O)c1 | – | > 100 µM | – | > 100 | – | – | – | > 100 µM | – | > 100 µM | – | > 100 µM | – | > 100 µM | – | – | – | > 100 µM | > 100 µM | –
COC(=O)C(=O)C(C#N)c1nc2ccccc2s1 (stereo unspecified) | – | > 100 µM | – | > 100 | – | – | – | > 100 µM | – | – | – | > 100 µM | – | > 100 µM | – | – | – | > 100 µM | > 100 µM | –
